From patent US20220081412A1, “QUINOLINYL-PYRAZINE-CARBOXAMIDE COMPOUNDS AND USES THEREOF” (The Regents of the University of Michigan, priority 2018, published 2022)
Read-outs that look alike come from different tables or passages of the source.

Test system: MIA PaCa-2 cells
Test: Bru-seq analysis for nascent RNA synthesis (log2FC of genes, GSEA gene sets)
Format: cell-based, human
[1] = ACEVEDO_LIVER_CANCER_WITH_H3K27ME3_UP, C2, downregulated, 4 h
[2] = ACTWSNACTNY_UNKNOWN, TFBT, upregulated, 4 h
[3] = AP1_Q4_01, TFBT, upregulated, 4 h
[4] = BACH1_01, TFBT, upregulated, 4 h
[5] = BACH2_01, TFBT, upregulated, 4 h
[6] = BEGUM_TARGETS_OF_PAX3_FOXO1_FUSION_UP, C2, downregulated, 4 h
[7] = CCCNNNNNNAAGWT_UNKNOWN, TFBT, upregulated, 4 h
[8] = DACOSTA_UV_RESPONSE_VIA_ERCC3_COMMON_DN, C2, downregulated, 4 h
[9] = DACOSTA_UV_RESPONSE_VIA_ERCC3_XPCS_DN, C2, downregulated, 4 h
[10] = DAZARD_UV_RESPONSE_CLUSTER_G6, C2, downregulated, 4 h
[11] = DE_YY1_TARGETS_DN, C2, downregulated, 4 h
[12] = DOANE_BREAST_CANCER_CLASSES_DN, C2, downregulated, 4 h
[13] = EVI1_05, TFBT, upregulated, 4 h
[14] = GABRIELY_MIR21_TARGETS, C2, downregulated, 4 h
[15] = GATGKMRGCG_UNKNOWN, TFBT, upregulated, 4 h
[16] = GCCNNNWTAAR_UNKNOWN, TFBT, upregulated, 4 h
[17] = GGAANCGGAANY_UNKNOWN, TFBT, upregulated, 4 h
[18] = GGCNRNWCTTYS_UNKNOWN, TFBT, upregulated, 4 h
[19] = GGGYGTGNY_UNKNOWN, TFBT, upregulated, 4 h
[20] = GO_ALCOHOL_BIOSYNTHETIC_PROCESS, upregulated, 4 h
[21] = GO_ALCOHOL_METABOLIC_PROCESS, upregulated, 4 h
[22] = GO_CELLULAR_RESPONSE_TO_TOPOLOGICALLY_INCORRECT_PROTEIN, upregulated, 4 h
[23] = GO_CHROMATIN_ASSEMBLY_OR_DISASSEMBLY, upregulated, 4 h
[24] = GO_CHROMATIN_SILENCING_AT_RDNA, upregulated, 4 h
[25] = GO_CYTOSOLIC_LARGE_RIBOSOMAL_SUBUNIT, upregulated, 4 h
[26] = GO_CYTOSOLIC_RIBOSOME, upregulated, 4 h
[27] = GO_DNA_PACKAGING, upregulated, 4 h
[28] = GO_DNA_PACKAGING_COMPLEX, upregulated, 4 h
[29] = GO_HEXOSE_METABOLIC_PROCESS, upregulated, 4 h
[30] = GO_INTRINSIC_COMPONENT_OF_ENDOPLASMIC_RETICULUM_MEMBRANE, upregulated, 4 h
[31] = GO_IRE1_MEDIATED_UNFOLDED_PROTEIN_RESPONSE, upregulated, 4 h
[32] = GO_NEGATIVE_REGULATION_OF_RESPONSE_TO_OXIDATIVE_STRESS, upregulated, 4 h

`Cc1cc(NC(=O)c2cnc(N3CCNCC3)cn2)c2ncccc2c1` [J28, N-(6-methylquinolin-8-yl)-5-(piperazin-1-yl)pyrazine-2-carboxamide] was tested, and the ES was 0.474, the “KEGG gene sets SYSTEMIC_LUPUS_ERYTHEMATOSUS and LYSOSOME” value was “upregulation” and the NES was 1.626. For the same compound, the “cholesterol biosynthesis pathway (curated gene sets)” value was “enrichment”, the “expression of genes like INSIG1, DHCR7, MVK and FASN” value was “Overexpression” and the “synthesis of PCYT2, DOLK and HIST1H3B RNAs” value was “upregulated in a dose-dependent manner”. For the same compound, the “expression of ZNF816, IFT80, CACNG8 and GPR135” value (4 h) was “significant decrease”, the “Cell Cycle, Mitotic pathway” value (4 h of treatment) was “upregulated” and the log2FC (AC005614.2, downregulated noncoding gene, 4 h) was −1.01. For the same compound, the log2FC (AC005726.2, downregulated protein-coding gene, 4 h) was −0.99, the log2FC (AC006141.1, downregulated noncoding gene, 4 h) was −1.18 and the log2FC (AC007038.2, downregulated noncoding gene, 4 h) was −1.08. The log2FC (AC007099.1, downregulated noncoding gene, 4 h) was −1.04, the log2FC (AC007390.2, downregulated noncoding gene, 4 h) was −1.54 and the log2FC (AC007619.1, downregulated noncoding gene, 4 h) was −1.30. For the same compound, the log2FC (AC009690.1, downregulated protein-coding gene, 4 h) was −0.83, the log2FC (AC016949.1, downregulated noncoding gene, 4 h) was −1.18 and the log2FC (AC022335.1, downregulated protein-coding gene, 4 h) was −0.86. It also gave a log2FC (AC022415.1, downregulated noncoding gene, 4 h) of −1.20, a log2FC (AC040934.1, downregulated noncoding gene, 4 h) of −0.97 and a log2FC (AC046130.2, downregulated noncoding gene, 4 h) of −1.16. The log2FC (AC091152.2, downregulated noncoding gene, 4 h) was −1.18, the log2FC (AC135983.2, downregulated noncoding gene, 4 h) was −1.16 and the log2FC (AC244131.2, downregulated noncoding gene, 4 h) was −1.22. For the same compound, the ES [1] was −0.444, the NES [1] was −1.897 and the ES [2] was 0.432. The NES [2] was 1.640, the log2FC (ADNP-AS1, downregulated noncoding gene, 4 h) was −1.07 and the log2FC (AKAP5, downregulated protein-coding gene, 4 h) was −0.90. For the same compound, the log2FC (AL596247.1, downregulated noncoding gene, 4 h) was −2.37, the ES [3] was 0.371 and the NES [3] was 1.550. For the same compound, the log2FC (AP001992.1, downregulated noncoding gene, 4 h) was −1.36, the ES [4] was 0.419 and the NES [4] was 1.762. It also gave an ES [5] of 0.390, an NES [5] of 1.654 and an ES [6] of −0.621. For the same compound, the NES [6] was −2.034, the log2FC (CACNG8, downregulated protein-coding gene, 4 h) was −1.10 and the ES [7] was 0.409. For the same compound, the NES [7] was 1.550, the log2FC (CCDC190, downregulated protein-coding gene, 4 h) was −0.91 and the log2FC (CD274, downregulated protein-coding gene, 4 h) was −0.90. The log2FC (CHML, downregulated protein-coding gene, 4 h) was −0.94, the log2FC (CLEC2D, downregulated protein-coding gene, 4 h) was −0.84 and the ES [8] was −0.448. The NES [8] was −2.492, the ES [9] was −0.520 and the NES [9] was −2.258. For the same compound, the ES [10] was −0.434, the NES [10] was −2.065 and the ES [11] was −0.471. The NES [11] was −2.072, the ES [12] was −0.562 and the NES [12] was −1.907. The ES [13] was 0.421, the NES [13] was 1.596 and the log2FC (FERMT1, downregulated protein-coding gene, 4 h) was −0.88. For the same compound, the log2FC (FP671120.1, downregulated noncoding gene, 4 h) was −2.35, the ES [14] was −0.470 and the NES [14] was −2.457. It also gave an ES [15] of 0.462, an NES [15] of 1.697 and an ES [16] of 0.442. For the same compound, the NES [16] was 1.702, the log2FC (GCLM, downregulated protein-coding gene, 4 h) was −0.85 and the log2FC (GCNA, downregulated protein-coding gene, 4 h) was −0.89. For the same compound, the ES [17] was 0.421, the NES [17] was 1.695 and the ES [18] was 0.424. It also gave an NES [18] of 1.583, an ES [19] of 0.361 and an NES [19] of 1.708. It also gave an ES [20] of 0.573, an NES [20] of 2.162 and an ES [21] of 0.457. The NES [21] was 2.022, the ES [22] was 0.504 and the NES [22] was 2.013. It also gave an ES [23] of 0.470, an NES [23] of 1.952 and an ES [24] of 0.713. The NES [24] was 2.078, the ES [25] was 0.536 and the NES [25] was 1.982. For the same compound, the ES [26] was 0.516, the NES [26] was 2.082 and the ES [27] was 0.468. It also gave an NES [27] of 1.976, an ES [28] of 0.727 and an NES [28] of 2.600. It also gave an ES [29] of 0.500, an NES [29] of 1.992 and an ES [30] of 0.508. For the same compound, the NES [30] was 2.000, the ES [31] was 0.556 and the NES [31] was 2.001. For the same compound, the ES [32] was 0.743 and the NES [32] was 2.162.
